Key:
[1] = molecular target: Mast/stem cell growth factor receptor Kit (Homo sapiens) (UniProt P10721); assay: cKit(h) Millipore kinase panel; details: Compound concentration 1.0 uM
[2] = molecular target: Serine/threonine-protein kinase Nek6 (Homo sapiens) (UniProt Q9HC98); assay: NEK6(h) Millipore kinase panel; details: Compound concentration 1.0 uM
[3] = molecular target: CDK12/Cyclin K (Homo sapiens) (UniProt O75909+Q9NYV4); assay: CDK12/cyclinK(h) Millipore kinase panel; assay type: protein-complex assay; details: Compound concentration 1.0 uM
[4] = molecular target: Adenosine receptor A3 (Homo sapiens) (UniProt P0DMS8); details: Compound concentration 10.0 uM
Chain of Adenosine receptor A3 (Homo sapiens) (P0DMS8 whole entry): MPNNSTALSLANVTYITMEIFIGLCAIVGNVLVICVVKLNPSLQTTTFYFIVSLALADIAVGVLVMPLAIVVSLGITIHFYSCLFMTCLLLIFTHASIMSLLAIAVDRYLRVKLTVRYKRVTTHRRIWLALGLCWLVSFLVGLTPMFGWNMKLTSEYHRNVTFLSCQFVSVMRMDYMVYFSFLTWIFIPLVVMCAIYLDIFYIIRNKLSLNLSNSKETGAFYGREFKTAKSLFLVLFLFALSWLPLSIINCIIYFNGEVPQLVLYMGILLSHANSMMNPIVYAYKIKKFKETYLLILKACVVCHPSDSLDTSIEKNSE

[5] = molecular target: Protein kinase C beta type (Homo sapiens) (UniProt P05771); assay: PKCbetaI(h) Millipore kinase panel; details: Compound concentration 1.0 uM
[6] = molecular target: STE20/SPS1-related proline-alanine-rich protein kinase (Homo sapiens) (UniProt Q9UEW8); assay: STK39(h) Millipore kinase panel; details: Compound concentration 1.0 uM
[7] = molecular target: Insulin receptor (Homo sapiens) (UniProt P06213); assay: IR(h) Millipore kinase panel; details: Compound concentration 1.0 uM
[8] = molecular target: Serine/threonine-protein kinase ULK3 (Homo sapiens) (UniProt Q6PHR2); assay: ULK3(h) Millipore kinase panel; details: Compound concentration 1.0 uM
[9] = molecular target: Casein kinase II subunit alpha (Homo sapiens) (UniProt P68400); assay: CK2(h) Millipore kinase panel; details: Compound concentration 1.0 uM
[10] = molecular target: Serine/threonine-protein kinase haspin (Homo sapiens) (UniProt Q8TF76); assay: Haspin(h) Millipore kinase panel; details: Compound concentration 1.0 uM
[11] = molecular target: Fibroblast growth factor receptor 1 (Homo sapiens) (UniProt P11362); assay: FGFR1(h) Millipore kinase panel; details: Compound concentration 1.0 uM
Chain of Fibroblast growth factor receptor 1 (Homo sapiens) (P11362 22-822 limits assumed): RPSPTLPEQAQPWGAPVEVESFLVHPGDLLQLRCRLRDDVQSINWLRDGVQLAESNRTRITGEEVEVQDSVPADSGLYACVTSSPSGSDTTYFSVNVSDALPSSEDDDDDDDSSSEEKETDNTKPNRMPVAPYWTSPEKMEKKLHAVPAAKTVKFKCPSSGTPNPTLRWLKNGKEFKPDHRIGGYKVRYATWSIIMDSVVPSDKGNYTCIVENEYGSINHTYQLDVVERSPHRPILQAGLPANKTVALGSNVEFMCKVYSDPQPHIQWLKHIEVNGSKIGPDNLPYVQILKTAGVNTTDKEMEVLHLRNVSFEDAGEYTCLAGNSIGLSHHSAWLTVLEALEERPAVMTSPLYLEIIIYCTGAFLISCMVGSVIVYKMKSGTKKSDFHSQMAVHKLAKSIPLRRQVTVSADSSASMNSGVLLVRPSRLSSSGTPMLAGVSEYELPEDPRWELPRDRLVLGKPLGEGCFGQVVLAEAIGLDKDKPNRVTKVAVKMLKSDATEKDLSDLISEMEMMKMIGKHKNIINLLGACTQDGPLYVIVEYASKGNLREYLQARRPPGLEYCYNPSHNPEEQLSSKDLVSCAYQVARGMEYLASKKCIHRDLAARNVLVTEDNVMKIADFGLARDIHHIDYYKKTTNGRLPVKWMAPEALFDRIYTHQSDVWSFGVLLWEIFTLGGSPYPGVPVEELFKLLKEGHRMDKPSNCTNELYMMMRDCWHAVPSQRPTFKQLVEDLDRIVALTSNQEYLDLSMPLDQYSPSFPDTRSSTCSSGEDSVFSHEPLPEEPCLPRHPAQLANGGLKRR

[12] = molecular target: Homeodomain-interacting protein kinase 4 (Homo sapiens) (UniProt Q8NE63); assay: HIPK4(h) Millipore kinase panel; details: Compound concentration 1.0 uM
[13] = molecular target: Serine/threonine-protein kinase Sgk3 (Homo sapiens) (UniProt Q96BR1); assay: SGK3(h) Millipore kinase panel; details: Compound concentration 1.0 uM
[14] = molecular target: Serine/threonine-protein kinase PAK 3 (Homo sapiens) (UniProt O75914); assay: PAK3(h) Millipore kinase panel; details: Compound concentration 1.0 uM
[15] = molecular target: BMP-2-inducible protein kinase (Homo sapiens) (UniProt Q9NSY1); assay: BIKe(h) Millipore kinase panel; details: Compound concentration 1.0 uM
[16] = molecular target: Serine/threonine-protein kinase 3 (Homo sapiens) (UniProt Q13188); assay: MST2(h) Millipore kinase panel; details: Compound concentration 1.0 uM
Chain of Serine/threonine-protein kinase 3 (Homo sapiens) (Q13188 whole entry): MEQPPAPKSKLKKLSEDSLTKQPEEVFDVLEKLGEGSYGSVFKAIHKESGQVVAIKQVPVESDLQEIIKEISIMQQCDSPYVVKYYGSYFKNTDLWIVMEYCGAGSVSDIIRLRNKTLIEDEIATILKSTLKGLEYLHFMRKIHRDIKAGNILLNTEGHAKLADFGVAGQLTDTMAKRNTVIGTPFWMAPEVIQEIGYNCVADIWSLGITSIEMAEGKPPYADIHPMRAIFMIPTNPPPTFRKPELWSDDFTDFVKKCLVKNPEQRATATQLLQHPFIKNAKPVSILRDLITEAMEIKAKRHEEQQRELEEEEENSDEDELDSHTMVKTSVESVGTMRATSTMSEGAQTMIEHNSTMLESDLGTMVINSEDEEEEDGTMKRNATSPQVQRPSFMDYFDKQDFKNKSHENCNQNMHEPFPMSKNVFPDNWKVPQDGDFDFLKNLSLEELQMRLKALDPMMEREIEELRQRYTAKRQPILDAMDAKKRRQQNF

[17] = molecular target: Activin receptor type-1 (Homo sapiens) (UniProt Q04771); assay: ALK2(h) Millipore kinase panel; details: Compound concentration 1.0 uM
[18] = molecular target: GABA-A receptor; anion channel; assay: GPCRScan assay: inhibition of GABAA/BZP; assay type: protein-complex assay, Rattus norvegicus; design: radioligand conc. used [nm] 0.6 – 4.0, parental cells brain tissue
[19] = molecular target: Mitogen-activated protein kinase 8 (Homo sapiens) (UniProt P45983); assay: JNK1alpha1(h) Millipore kinase panel; details: Compound concentration 1.0 uM
[20] = molecular target: Serine/threonine-protein kinase 32A (Homo sapiens) (UniProt Q8WU08); assay: STK32A(h) Millipore kinase panel; details: Compound concentration 1.0 uM
Chain of Serine/threonine-protein kinase 32A (Homo sapiens) (Q8WU08 whole entry): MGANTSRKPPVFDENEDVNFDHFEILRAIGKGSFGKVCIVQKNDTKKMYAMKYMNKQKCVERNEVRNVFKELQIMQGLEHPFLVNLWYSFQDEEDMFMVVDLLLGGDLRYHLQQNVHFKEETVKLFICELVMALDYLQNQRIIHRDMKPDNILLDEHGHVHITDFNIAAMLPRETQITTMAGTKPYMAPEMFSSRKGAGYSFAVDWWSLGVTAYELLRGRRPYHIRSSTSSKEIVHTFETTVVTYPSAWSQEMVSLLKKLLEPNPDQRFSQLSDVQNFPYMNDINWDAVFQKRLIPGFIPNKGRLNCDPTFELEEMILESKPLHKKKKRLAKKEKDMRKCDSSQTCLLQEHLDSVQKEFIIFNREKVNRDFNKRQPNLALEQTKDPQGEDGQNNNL

[21] = molecular target: High affinity nerve growth factor receptor (Homo sapiens) (UniProt P04629); assay: TrkA(h) Millipore kinase panel; details: Compound concentration 1.0 uM
[22] = molecular target: 5-hydroxytryptamine receptor 7 (Homo sapiens, UniProt P34969); assay: GPCRScan assay: inhibition of 5-HT7A; design: radioligand conc. used [nm] 5.0 – 6.0, parental cells Stable HEK
Chain of 5-hydroxytryptamine receptor 7 (P34969 whole entry): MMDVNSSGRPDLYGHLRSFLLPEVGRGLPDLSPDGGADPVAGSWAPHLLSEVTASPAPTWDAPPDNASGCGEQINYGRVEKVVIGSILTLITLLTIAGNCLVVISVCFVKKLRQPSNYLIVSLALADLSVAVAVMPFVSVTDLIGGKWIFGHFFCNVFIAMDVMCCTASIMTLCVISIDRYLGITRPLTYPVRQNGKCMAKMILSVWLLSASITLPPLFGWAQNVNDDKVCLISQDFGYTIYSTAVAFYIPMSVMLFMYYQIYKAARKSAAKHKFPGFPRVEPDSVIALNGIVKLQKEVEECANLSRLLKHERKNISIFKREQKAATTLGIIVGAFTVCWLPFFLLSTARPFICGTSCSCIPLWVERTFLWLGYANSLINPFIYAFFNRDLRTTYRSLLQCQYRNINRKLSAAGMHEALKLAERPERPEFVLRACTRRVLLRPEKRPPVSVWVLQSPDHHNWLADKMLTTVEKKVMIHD

[23] = molecular target: Serine/threonine-protein kinase SIK1 (Homo sapiens) (UniProt P57059); assay: SIK(h) Millipore kinase panel; details: Compound concentration 1.0 uM
[24] = molecular target: Focal adhesion kinase 1 (Homo sapiens) (UniProt Q05397); assay: FAK(h Millipore kinase panel; details: Compound concentration 1.0 uM
[25] = molecular target: Serine/threonine-protein kinase PLK2 (Homo sapiens) (UniProt Q9NYY3); assay: Snk(h) Millipore kinase panel; details: Compound concentration 1.0 uM
[26] = molecular target: Protein kinase C alpha type (Homo sapiens) (UniProt P17252); assay: PKCalpha(h) Millipore kinase panel; details: Compound concentration 1.0 uM
[27] = molecular target: Ephrin type-A receptor 8 (Homo sapiens) (UniProt P29322); assay: EphA8(h) Millipore kinase panel; details: Compound concentration 1.0 uM
Chain of Ephrin type-A receptor 8 (Homo sapiens) (P29322 whole entry): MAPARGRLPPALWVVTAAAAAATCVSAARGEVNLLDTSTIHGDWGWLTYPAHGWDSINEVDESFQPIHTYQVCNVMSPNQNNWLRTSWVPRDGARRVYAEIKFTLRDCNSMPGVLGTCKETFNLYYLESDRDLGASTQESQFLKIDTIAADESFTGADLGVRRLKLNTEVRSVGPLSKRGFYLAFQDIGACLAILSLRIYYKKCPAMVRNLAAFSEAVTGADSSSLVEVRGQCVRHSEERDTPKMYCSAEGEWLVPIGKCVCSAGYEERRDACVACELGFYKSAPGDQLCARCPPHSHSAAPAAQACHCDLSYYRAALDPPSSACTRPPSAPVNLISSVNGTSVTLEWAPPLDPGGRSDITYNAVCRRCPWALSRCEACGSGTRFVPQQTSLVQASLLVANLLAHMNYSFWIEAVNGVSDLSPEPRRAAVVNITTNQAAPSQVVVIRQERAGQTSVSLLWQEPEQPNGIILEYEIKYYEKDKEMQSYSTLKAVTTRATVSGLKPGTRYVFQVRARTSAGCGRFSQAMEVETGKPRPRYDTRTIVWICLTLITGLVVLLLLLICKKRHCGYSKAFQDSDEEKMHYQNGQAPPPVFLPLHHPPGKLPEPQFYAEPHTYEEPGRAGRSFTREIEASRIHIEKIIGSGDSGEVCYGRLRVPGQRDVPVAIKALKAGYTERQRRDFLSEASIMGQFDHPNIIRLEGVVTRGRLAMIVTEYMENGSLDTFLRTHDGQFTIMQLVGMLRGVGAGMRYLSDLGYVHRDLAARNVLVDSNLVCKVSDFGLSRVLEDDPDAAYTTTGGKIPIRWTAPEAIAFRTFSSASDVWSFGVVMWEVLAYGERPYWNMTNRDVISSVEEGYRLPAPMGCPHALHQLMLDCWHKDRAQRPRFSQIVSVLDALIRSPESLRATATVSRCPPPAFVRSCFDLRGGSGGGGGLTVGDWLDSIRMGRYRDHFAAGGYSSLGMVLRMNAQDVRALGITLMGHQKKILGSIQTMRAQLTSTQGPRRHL

[28] = molecular target: Histamine H1 receptor (Homo sapiens) (UniProt P35367); details: Compound concentration 10.0 uM
[29] = molecular target: Phosphatidylinositol 3-kinase C2 domain-containing subunit gamma (Homo sapiens) (UniProt O75747); assay: PI3KC2g(h) Millipore kinase panel; details: Compound concentration 1.0 uM
[30] = molecular target: Purinergic P2Y (Rattus norvegicus) (UniProt O35811+Q9EPX4+P49651+Q63371+P41232+O35881+Q6GUG4); assay: Inhibition of Purinergic P2Y at compound concentration of 10.0 uM in the Eurofins-Panlabs radioligand binding assay (Eurofins_assay_268820); assay type: protein assay; design: ligand concentration 0.1 nM; details: Compound concentration 10.0 uM
[31] = molecular target: Homeodomain-interacting protein kinase 2 (Homo sapiens) (UniProt Q9H2X6); assay: HIPK2(h) Millipore kinase panel; details: Compound concentration 1.0 uM
[32] = molecular target: Tyrosine-protein kinase Lck (Homo sapiens) (UniProt P06239); assay: Lck(h) Millipore kinase panel; details: Compound concentration 1.0 uM
[33] = molecular target: Myotonin-protein kinase (Homo sapiens) (UniProt Q09013); assay: DMPK(h) Millipore kinase panel; details: Compound concentration 1.0 uM
[34] = molecular target: Serine/threonine-protein kinase D3 (Homo sapiens) (UniProt O94806); assay: PKD3(h) Millipore kinase panel; details: Compound concentration 1.0 uM
[35] = molecular target: 5-hydroxytryptamine receptor 1E (Homo sapiens) (UniProt P28566); details: Compound concentration 10.0 uM
[36] = molecular target: PAS domain-containing serine/threonine-protein kinase (Homo sapiens) (UniProt Q96RG2); assay: PASK(h) Millipore kinase panel; details: Compound concentration 1.0 uM
[37] = molecular target: Serine/threonine-protein kinase 26 (Homo sapiens) (UniProt Q9P289); assay: MST4(h) Millipore kinase panel; details: Compound concentration 1.0 uM
[38] = molecular target: Adenosine receptor A2a (Homo sapiens) (UniProt P29274); details: Compound concentration 10.0 uM
[39] = molecular target: Polyunsaturated fatty acid lipoxygenase ALOX15 (Homo sapiens) (UniProt P16050); assay: Inhibition of Lipoxygenase 15-LO at compound concentration of 10.0 uM in the Eurofins-Panlabs enzyme assay (Eurofins_assay_199017); details: Compound concentration 10.0 uM
[40] = molecular target: Serine/threonine-protein kinase PAK 6 (Homo sapiens) (UniProt Q9NQU5); assay: PAK6(h) Millipore kinase panel; details: Compound concentration 1.0 uM
[41] = molecular target: Glycogen synthase kinase-3 alpha (Homo sapiens) (UniProt P49840); assay: GSK3alpha(h Millipore kinase panel; details: Compound concentration 1.0 uM
[42] = molecular target: Fibroblast growth factor receptor 2 (Homo sapiens) (UniProt P21802); assay: FGFR2(h) Millipore kinase panel; details: Compound concentration 1.0 uM
[43] = molecular target: D(3) dopamine receptor (Homo sapiens) (UniProt P35462); details: Compound concentration 10.0 uM
[44] = molecular target: Vasopressin V1a receptor (Homo sapiens) (UniProt P37288); details: Compound concentration 10.0 uM
[45] = molecular target: Testis-specific serine/threonine-protein kinase 2 (Homo sapiens) (UniProt Q96PF2); assay: TSSK2(h) Millipore kinase panel; details: Compound concentration 1.0 uM
[46] = molecular target: Serine/threonine-protein kinase Chk1 (Homo sapiens) (UniProt O14757); assay: CHK1(h) Millipore kinase panel; details: Compound concentration 1.0 uM
[47] = molecular target: Dual specificity mitogen-activated protein kinase kinase 3 (Homo sapiens) (UniProt P46734); assay: MKK3(h) Millipore kinase panel; details: Compound concentration 1.0 uM
[48] = molecular target: Macrophage colony-stimulating factor 1 receptor (Homo sapiens) (UniProt P07333); assay: Fms(h) Millipore kinase panel; details: Compound concentration 1.0 uM
Chain of Macrophage colony-stimulating factor 1 receptor (Homo sapiens) (P07333 whole entry): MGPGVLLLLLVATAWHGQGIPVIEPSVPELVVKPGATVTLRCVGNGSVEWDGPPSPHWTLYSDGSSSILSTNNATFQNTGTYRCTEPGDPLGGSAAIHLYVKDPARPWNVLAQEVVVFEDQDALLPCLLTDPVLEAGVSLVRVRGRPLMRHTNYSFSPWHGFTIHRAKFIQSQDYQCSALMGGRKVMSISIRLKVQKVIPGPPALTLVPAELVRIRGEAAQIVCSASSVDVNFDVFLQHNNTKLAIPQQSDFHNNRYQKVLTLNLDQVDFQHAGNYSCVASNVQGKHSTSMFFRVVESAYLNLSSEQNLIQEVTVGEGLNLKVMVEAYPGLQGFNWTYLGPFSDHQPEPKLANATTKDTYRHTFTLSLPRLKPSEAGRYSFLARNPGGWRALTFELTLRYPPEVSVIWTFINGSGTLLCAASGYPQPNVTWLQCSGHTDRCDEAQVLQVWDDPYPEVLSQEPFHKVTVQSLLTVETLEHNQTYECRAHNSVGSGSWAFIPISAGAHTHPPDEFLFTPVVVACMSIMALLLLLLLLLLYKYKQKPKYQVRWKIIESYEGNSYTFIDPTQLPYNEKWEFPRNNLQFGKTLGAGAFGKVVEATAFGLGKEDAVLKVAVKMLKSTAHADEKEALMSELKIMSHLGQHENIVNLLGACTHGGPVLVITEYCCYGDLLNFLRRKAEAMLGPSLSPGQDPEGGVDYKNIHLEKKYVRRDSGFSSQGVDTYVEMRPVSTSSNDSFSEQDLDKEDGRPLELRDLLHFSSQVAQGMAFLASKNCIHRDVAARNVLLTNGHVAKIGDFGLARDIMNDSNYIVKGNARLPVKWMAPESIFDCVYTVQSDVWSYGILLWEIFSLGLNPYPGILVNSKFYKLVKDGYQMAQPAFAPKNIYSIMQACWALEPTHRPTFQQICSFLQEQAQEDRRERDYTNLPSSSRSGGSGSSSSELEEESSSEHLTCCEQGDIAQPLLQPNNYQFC

[49] = molecular target: Serine/threonine-protein kinase WNK1 (Homo sapiens) (UniProt Q9H4A3); assay: WNK1(h) Millipore kinase panel; details: Compound concentration 1.0 uM

Chain of Serine/threonine-protein kinase Nek6 (Homo sapiens) (Q9HC98 whole entry): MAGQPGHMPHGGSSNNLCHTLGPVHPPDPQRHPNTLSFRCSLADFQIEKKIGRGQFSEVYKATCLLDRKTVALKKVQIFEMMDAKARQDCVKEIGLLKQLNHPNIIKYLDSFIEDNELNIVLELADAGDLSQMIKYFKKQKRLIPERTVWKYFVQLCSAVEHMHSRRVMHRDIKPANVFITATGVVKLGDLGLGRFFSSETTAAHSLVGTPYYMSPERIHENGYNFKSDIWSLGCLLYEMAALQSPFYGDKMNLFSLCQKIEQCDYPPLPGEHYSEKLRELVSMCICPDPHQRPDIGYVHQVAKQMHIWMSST

With CC[C@@H](Nc1c(C#N)c(-c2ccc(-c3cccc(C)c3F)cc2)nc2cnccc12)C(=O)O [BAY-091] the inhibition [1] was 22.3%, the inhibition [2] was 9.31% and the inhibition [3] was 10.3%. The inhibition [4] was 21%, the inhibition [5] was 16.5% and the inhibition [6] was 5.6%. The inhibition [7] was -2.92%, the inhibition [8] was 0.33% and the inhibition [9] was 4.66%. It also gave an inhibition [10] of 14.2%, an inhibition [11] of 6.44% and an inhibition [12] of 15.7%. It also gave an inhibition [13] of 6.09%, an inhibition [14] of 4.13% and an inhibition [15] of 5.17%. It also gave an inhibition [16] of 0.08%, an inhibition [17] of 5.14% and a Ki [18] of 6.83 µM. It also gave an inhibition [19] of 4.24%, an inhibition [20] of 16% and an inhibition [21] of 5.32%. It also gave a Ki [22] of over 10 µM, a pKi [22] of under 5 and an inhibition [23] of 13.4%. For the same compound, the inhibition [24] was 13.3%, the inhibition [25] was 7.48% and the inhibition [26] was 16.2%. The inhibition [27] was -6.72%, the inhibition [28] was 12.3% and the inhibition [29] was 25.4%. For the same compound, the inhibition [30] was 31%, the inhibition [31] was 0.19% and the inhibition [32] was -0.68%. The inhibition [33] was 15.1%, the inhibition [34] was 12.6% and the inhibition [35] was 17.2%. It also gave an inhibition [36] of 11.1%, an inhibition [37] of 5.69% and an inhibition [38] of 7%. It also gave an inhibition [39] of 20%, an inhibition [40] of -5.79% and an inhibition [41] of 5.47%. The inhibition [42] was 9.63%, the inhibition [43] was 10.5% and the inhibition [44] was -3%. The inhibition [45] was -1.97%, the inhibition [46] was 4.56% and the inhibition [47] was 12.8%. For the same compound, the inhibition [48] was -5.04% and the inhibition [49] was 14.7%.
